In US10925923B2, “Peptide having anti-inflammatory activity, and use thereof” (CAREGEN CO., LTD., priority 2016, dated 2021):
Where no end group is shown, it is not given here.

Assays:
[1] = system: COX2; experiment: Western blot of COX2 in splenocytes; assay type: cell-based, mice; details: peptide 0.2-20 ug/ml, 24 hours
Description: The splenocytes obtained in example 1 were seeded in 24-well plate at cell density of 1×10^7 cells/well. Then, after incubation overnight, the cells were treated with the peptides of SEQ ID NO: 1, SEQ ID NO: 2 and SEQ ID NO: 3 with different concentrations (0.2-20 ug/ml), followed by incubation in an incubator at 37° C. for 24 hours, and then the cells were treated with cell lysis buffer to secure lysate, followed by protein quantification. Then, western blotting with respect to the inflammation inducing factor COX2 was conducted, and the results are shown in FIGS. 2a to 2f.

[2] = system: TNF-α; experiment: TNF-α RT-PCR in LPS-stimulated splenocytes; assay type: cell-based, mice; details: mouse splenocytes, LPS stimulator, peptide 0.2, 2, 20 ug/ml
Description: [The procedure below names another target; the source lists this target under the same test.] After 6-7-week-old mice were sacrificed to obtain spleen, the spleen was crushed using a cell filter, and centrifuged with serum-free RPMI 1640 medium. The upper layer was discarded, and for removal of red blood cells (RBC), RBC lysis buffer was used.
RBC was removed twice, followed by washing with serum-free RPMI1640 medium, and then an appropriate amount of serum-free RPMI1640 medium was added.
The cells were counted, and seeded in 96-well plate (1×10^6 cells/well) and 24-well plate (1×10^7 cells/dish). The next day, the cells were treated with respective peptide samples (0.2, 2, 20 ug/ml) and the stimulator LPS. Here, the experiment was performed by adjusting the time point.
Total RNA was extracted using Easy Blue (Intron). For synthesis of single-stranded DNA from RNA, RT premix (Intron) was used, and 3 ug of RNA, 2 ug of random hexamer, and DEPC-treated water were added thereto to reach a total volume of 20 ul, followed by reaction for 5 minutes at 65° C. and 1 hour at 42° C. Heating was again conducted at 95° C. for 5 minutes to prepare cDNA.
PCR was conducted by mixing 3 ul of cDNA and 10 pmole primers specific to CGI 58 gene with PCR premix (Intron). PCR conditions were: 94° C. for 30 seconds, 55-56° C. for 30 seconds, and 72° C. for 30 seconds. Genes were analyzed in the conditions in which the PCR results could be exponentially amplified. 5 ul of PCR product was obtained, electrophoresed on 1% agarose gel, and stained with ethidium bromide.

[3] = system: CD3+ and CD25+ cells; experiment: Activation T cell analysis (FACS), CD3 and CD25 markers; assay type: cell-based, mice; details: splenocytes, LPS stimulator, 24 hours
Description: The cells were treated with the peptide samples and the stimulator LPS as described in example 1, and after 24 hours, the cells were treated with antibody (CD3 and CD25) activation T cell markers for 30 minutes, followed by washing twice with PBS, and then FACS was conducted.

[4] = system: TNF-α; experiment: ELISA (splenocytes), TNF-α secretion; assay type: cell-based, mice; details: LPS stimulator, 48 hours
Description: (§1) The splenocytes treated with the peptide samples and the stimulator LPS in example 1 were incubated for 48 hours, and then the culture media were collected. The obtained media were subjected to an experiment using an ELISA kit (R&D system) for cytokines (TNF-α and INF-γ) to be investigated.

[5] = system: TNF-α; experiment: ELISA (Raw264.7 cells), TNF-α secretion; assay type: cell-based; details: pre-treated at 0.2, 2, 20 ug/ml, then LPS, 24 hours
Description: Raw264.7 cells were seeded at 1×10^6 cells/48-well, and incubated overnight. The cells were pre-treated with samples to be investigated at 0.2, 2, and 20 ug/ml, and after 30 minutes, the cells were treated with LPS. Incubation was conducted at the scheduled time point. After 24 hours, the culture media were collected, and the obtained media were subjected to an experiment using an ELISA kit (R&D system) for cytokine (TNF-α) to be investigated.

[6] = system: Raw264.7 cells; experiment: FACS intracellular ROS assay (DCF-DA); assay type: cell-based; details: pre-treated at 1, 10, 50 ug/ml, then LPS
Description: Raw264.7 cells were seeded at 1×10^6 cells/6-well, and incubated overnight. The cells were pre-treated with samples to be investigated at 1, 10, and 50 ug/ml, and after 30 minutes, the cells were treated with LPS. The cells were incubated according to the scheduled time point, and then 30 minutes after the treatment with DCF-DH, the oxidation activity was measured by the degree of fluorescence using FACS.

[7] = system: INF-γ; experiment: ELISA (splenocytes), INF-γ secretion; assay type: cell-based, mice; details: LPS stimulator, 48 hours
Description: as §1

[8] = system: IL-2; experiment: IL-2 RT-PCR in LPS-stimulated splenocytes; assay type: cell-based, mice; details: mouse splenocytes, LPS stimulator, peptide 0.2, 2, 20 ug/ml

Row | Substance | expression of COX2 (western blot) [1] | expression of TNF-α (RT-PCR) [2] | CD3+ and CD25+ cells (FACS) [3] | secretion of TNF-α in splenocytes (ELISA) [4] | secretion of TNF-α in RAW264.7 cells (ELISA) [5] | ROS production [6] | secretion of INF-γ in splenocytes (ELISA) [7] | expression of IL-2 (RT-PCR) [8]
1 | Asp-Asn-Cys-Leu-Arg (DNCLR) [SEQ ID NO: 2] | reduced | tend to decrease | decreased | decreased | tended to decrease | reduced | decreased | tend to decrease
2 | GVQHQASPY [SEQ ID NO: 3] | reduced | tend to decrease | decreased | – | decreased | reduced | – | tend to decrease
3 | Thr-Met-Arg-Asp (TMRD) [SEQ ID NO: 1] | reduced | tend to decrease | decreased | decreased | tended to decrease | reduced | decreased | tend to decrease
